{
  "source": "paper PMC10614388",
  "about": "“Genoprotective potential of Macaranga species phytochemical compounds on HT-29 human colorectal adenocarcinoma cell line” (Genes and Environment, 2023)",
  "key": {"HT-29 cells [1]": {"tested_on": "HT-29 cells", "assay": "Annexin V-FITC/PI apoptosis assay (flow cytometry)", "format": "cell-based, human", "procedure": "The mode of cell death was determined using the Annexin V-FITC/PI apoptosis assay. Cells were treated with IC50 value of the selected compound and apoptosis assessment were done at 4 h, 24 and 48 h respectively. 100µM of menadione was used as a positive control with an enriched media act as a negative control. The measurement of apoptosis is based on phosphatidylserine (PS) exposure as described previously. Briefly, cells were collected and resuspended in […] annexin V buffer containing […] FITC-conjugated annexin V and incubated for 15 min in the dark. Propidium iodide ([…] of 50 mg/ml stock in PBS) was then added and samples were subjected to flow cytometric analysis using FACS CANTO II (BD Biosciences, San Jose, CA, USA)."}, "HT-29 cells [2]": {"tested_on": "HT-29 cells", "assay": "Reactive oxygen species by dihydroethidine (HE) staining (flow cytometry)", "format": "cell-based, human", "procedure": "The generation of superoxide anion was determined as described previously. […] Cells were then centrifuged at 220 g for 5 min and resuspended in 1 ml PBS. Flow cytometry was performed using FACS CANTO II (BD Bioscience)."}, "HT-29 cells [3]": {"tested_on": "HT-29 cells", "assay": "Alkaline Comet assay, protection against menadione-induced genotoxicity", "procedure": "(§1) Alkaline Comet Assay was used to assess strand breaks in DNA indicative of DNA damage. The experiment was carried out according to previous study by Tan et al.. […] Cells were also treated with hydrogen peroxide (H2O2) (as positive control, 1.0 mM) for 30 min. […] Following respective incubations, detached cells in the media were collected, added to trypsinize cells and centrifuged (2500 rpm/5 min). The supernatant was removed, and the pellet was washed with Ca^2+−/Mg^2+-free PBS before re-centrifugation. Pellets left at the bottom were mixed thoroughly with 80 µl of 0.6% low melting agarose (LMA) (w/v) and the mixture was pipetted onto hardened 0.6% normal melting agarose (NMA) (w/v) on the slide. Coverslips were placed to spread the mixture and the slides were left on ice for LMA to solidify. Following the removal of the coverslips, the embedded cells were lysed in lysis buffer containing 2.5 M NaCl, 100 mM Na2EDTA, 10 mM Tris, and 1% Triton X-100 for 1 h at 4 °C. Slides were soaked in electrophoresis buffer solution for 20 min at 4 °C for DNA-unwinding before electrophoresis at 300 mA, 25 V, for 20 min. Subsequently, the slides were rinsed with neutralizing buffer for 5 min and stained with […] ethidium bromide solution. Slides were analysed using Leitz Laborlux epifluorescence microscope equipped with 515 barrier filter and 560 emission filter. Fifty cells per slide were scored and the tail moment (TM) and % tail DNA (TD) were analyzed with COMET assay III (Perceptive Instruments, UK)."}, "[4]": {"tested_on": "HT-29 human colorectal adenocarcinoma cell line", "assay": "Sulforhodamine B (SRB) cytotoxicity assay", "format": "cell-based", "details": "HT-29 cells, 48 h treatment", "procedure": "(§2) HT-29 (HTB-38™) cells were grown in McCoy’s 5a Modified Medium (Sigma-Aldrich, St. Louis, MO, USA) while CCD-18Co (CRL-1459™) cells were grown in Eagle’s Minimum Essential Medium (EMEM; Thermo Fisher Scientific, Waltham, MA, USA). Both culture media were supplemented with 10% foetal bovine serum (FBS; Thermo Fisher Scientific, Waltham, MA, USA) and penicillin-streptomycin antibiotic (Thermo Fisher Scientific, Waltham, MA, USA). Non-essential amino acids (NEAA; Thermo Fisher Scientific, Waltham, MA, USA) were added to the completed EMEM media. Cells were maintained at 37 °C in a 5% CO2 incubator. Cells were detached via trypsinization (0.025% trypsin) after reaching confluency and were ready to be used for tests.\n(§3) Sulforhodamine B (SRB) assay was used to assess the cytotoxicity of the compounds [17]. Briefly, HT-29 and CCD-18Co cells were seeded in 96-well-plate at 1.5 × 10^5 cells/ml respectively and were incubated at 37 °C in 5% CO2 for 24 h. 100 µl of six concentrations of serially diluted compounds (0.94–30 µg/ml) were added in their respective wells. Hydrogen peroxide (10 mM) was used as the positive control. The plate was incubated for 48 h. Cells were fixed with 50 µl of 50% cold (4 °C) trichloroacetic Acid (TCA) and incubated at 4 °C for 1 h. The plates were washed five times with tap water and air-dried before staining with 100 µL of 0.4% (w/v) SRB staining solution (Sigma-Aldrich, St. Louis, MO, USA). Further incubation was done for 30 min at room temperature. Subsequently, the plates were washed three times with 1% (v/v) acetic acid to remove any unbound stains. After air-dried, 200 µL of 10 mM trizma base were added into each well and agitated for 15 min. Absorbance was read with a microplate reader with Microplate Manager® Software at the wavelength of 564 nm. All experiments were carried out in triplicates."}, "[5]": {"tested_on": "murine leukemia P-388 cells", "design": "method as in earlier work", "details": "Tanjung et al. (2017); cited from earlier work"}, "[6]": {"tested_on": "CCD-18Co human normal colon cell line", "assay": "Sulforhodamine B (SRB) cytotoxicity assay", "format": "cell-based", "details": "CCD-18Co cells, 48 h treatment", "procedure": "as §2, §3"}, "HT-29 cells [7]": {"tested_on": "HT-29 cells", "details": "human, 21.2 µM", "procedure": "as §1"}, "[8]": {"design": "method as in doi:10.1016/j.phytol.2019.02.002", "details": "cited from earlier work"}, "[9]": {"details": "menadione 100 µM, 4-hour incubation"}, "[10]": {"details": "pre-treated with Laevifolin A at IC50 for 20 h, followed by 4-hour menadione (100 µM)"}},
  "note": "“Also recorded” adds a separate entry of the source. Like-named read-outs stand apart in the source and are kept apart here.",
  "data": [
    {"smiles": "CC1=CC(=O)c2ccccc2C1=O", "note": "[Menadione, reference compound]", "values": [
      {"measurement": "induction of apoptotic cells", "setting": "HT-29 cells [1]; positive control at 100 µM", "value": "significant (p < 0.05) increase of apoptotic cells"},
      {"measurement": "percentage of cells with HE uptake (generation of ROS)", "setting": "HT-29 cells [2]; menadione at 100 µM, positive control", "value": "22.6 ± 1.0", "unit": "%"},
      {"measurement": "Level of DNA damage, % tail DNA", "setting": "HT-29 cells [3]; [9]", "value": "*23.4 ± 3.1%"},
      {"measurement": "Level of DNA damage, Tail moment", "setting": "HT-29 cells [3]; [9]", "value": "*7.00 ± 0.8 Arbitrary unit"}
    ]},
    {"smiles": "CC(C)=CCc1cc(CCc2c(CC=C(C)C)c(O)cc(O)c2CC=C(C)C)ccc1O", "note": "[Malayheyneiin A]", "values": [
      {"measurement": "IC50", "setting": "[4]", "value": "no IC50 values were obtained"}
    ]},
    {"smiles": "CC(C)=CCc1cc(CCc2c(CC=C(C)C)c(O)cc(O)c2CC=C(C)C)cc(O)c1O", "note": "[Laevifolin B]", "values": [
      {"measurement": "IC50", "setting": "[4]", "value": "no IC50 values were obtained"},
      {"measurement": "IC50", "setting": "[5]", "value": "12.3 ± 0.6", "unit": "µM"}
    ]},
    {"smiles": "CC(C)=CCc1c(CCc2c(CC=C(C)C)c(O)cc(O)c2CC=C(C)C)ccc(O)c1O", "note": "[Laevifolin A]", "values": [
      {"measurement": "IC50", "setting": "[6]", "value": 59.5, "unit": "µM"},
      {"measurement": "IC50", "setting": "[4]; Homo sapiens, read-out: IC50", "value": 21.2, "unit": "µM"},
      {"measurement": "induction of apoptotic cells", "setting": "HT-29 cells [1]; Laevifolin A at IC50 (21.2 µM), 4 h, 24 and 48 h, compared to negative control", "value": "no induction of apoptosis; also recorded: no significant induction of apoptotic cells; also recorded: did not induce apoptosis"},
      {"measurement": "percentage of cells with HE uptake (generation of ROS)", "setting": "HT-29 cells [2]; Laevifolin A at IC50 (21.2 µM), compared with negative control", "value": "no significant increase; also recorded: no significant increase or decrease of ROS"},
      {"measurement": "Level of DNA damage, % tail DNA", "setting": "HT-29 cells [7]; 30 min", "value": "6.4 ± 1.6", "unit": "%"},
      {"measurement": "Level of DNA damage, Tail moment", "setting": "HT-29 cells [7]; 30 min", "value": "0.53 ± 0.1", "unit": "Arbitrary unit"},
      {"measurement": "Level of DNA damage, % tail DNA", "setting": "HT-29 cells [7]; 1 h", "value": "6.0 ± 0.6", "unit": "%"},
      {"measurement": "Level of DNA damage, Tail moment", "setting": "HT-29 cells [7]; 1 h", "value": "0.45 ± 0.03", "unit": "Arbitrary unit"},
      {"measurement": "Level of DNA damage, % tail DNA", "setting": "HT-29 cells [7]; 4 h", "value": "4.3 ± 1.2", "unit": "%"},
      {"measurement": "Level of DNA damage, Tail moment", "setting": "HT-29 cells [7]; 4 h", "value": "0.31 ± 0.1", "unit": "Arbitrary unit"},
      {"measurement": "Level of DNA damage, % tail DNA", "setting": "HT-29 cells [7]; 24 h", "value": "7.8 ± 0.7", "unit": "%"},
      {"measurement": "Level of DNA damage, Tail moment", "setting": "HT-29 cells [7]; 24 h", "value": "0.69 ± 0.1", "unit": "Arbitrary unit"},
      {"measurement": "Level of DNA damage, % tail DNA", "setting": "HT-29 cells [3]; [10]", "value": "1.24 ± 0.1", "unit": "%"},
      {"measurement": "Level of DNA damage, Tail moment", "setting": "HT-29 cells [3]; [10]", "value": "9.8 ± 0.9", "unit": "Arbitrary unit"},
      {"measurement": "IC50", "setting": "[5]", "value": "4.3 ± 0.6", "unit": "µM"},
      {"measurement": "antioxidant properties, DPPH radical scavenging activity", "setting": "[8]", "value": "possesses antioxidant properties"}
    ]}
  ]
}
